In patent US20240199623A1 (ILDONG PHARMACEUTICAL CO., LTD., priority 2020, published 2024):

Target: human wild type-CFTR (Homo sapiens, UniProt P13569)
Assay: Cell-based YFP assay
Parameters: expressed in transfected cells; host or cells: CHO-K1 (Chinese hamster ovary)
Conditions: CHO-K1 cells expressing human wild type-CFTR and YFP-H148Q/I152L; forskolin 20 μM = 100% activity; read-out: Cell-based YFP Assay (EC50) Concentration Range
Method in brief: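 I⁻-driven YFP fluorescence quenching at 37 °C: 2 s baseline, addition of 140 mM iodide solution, then 14 s of readings at 0.4 s intervals. Cells were CHO-K1 expressing human wild-type CFTR plus YFP-H148Q/I152L. EC50 derived from averaged triplicates.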

Chain of human wild type-CFTR (P13569 whole entry): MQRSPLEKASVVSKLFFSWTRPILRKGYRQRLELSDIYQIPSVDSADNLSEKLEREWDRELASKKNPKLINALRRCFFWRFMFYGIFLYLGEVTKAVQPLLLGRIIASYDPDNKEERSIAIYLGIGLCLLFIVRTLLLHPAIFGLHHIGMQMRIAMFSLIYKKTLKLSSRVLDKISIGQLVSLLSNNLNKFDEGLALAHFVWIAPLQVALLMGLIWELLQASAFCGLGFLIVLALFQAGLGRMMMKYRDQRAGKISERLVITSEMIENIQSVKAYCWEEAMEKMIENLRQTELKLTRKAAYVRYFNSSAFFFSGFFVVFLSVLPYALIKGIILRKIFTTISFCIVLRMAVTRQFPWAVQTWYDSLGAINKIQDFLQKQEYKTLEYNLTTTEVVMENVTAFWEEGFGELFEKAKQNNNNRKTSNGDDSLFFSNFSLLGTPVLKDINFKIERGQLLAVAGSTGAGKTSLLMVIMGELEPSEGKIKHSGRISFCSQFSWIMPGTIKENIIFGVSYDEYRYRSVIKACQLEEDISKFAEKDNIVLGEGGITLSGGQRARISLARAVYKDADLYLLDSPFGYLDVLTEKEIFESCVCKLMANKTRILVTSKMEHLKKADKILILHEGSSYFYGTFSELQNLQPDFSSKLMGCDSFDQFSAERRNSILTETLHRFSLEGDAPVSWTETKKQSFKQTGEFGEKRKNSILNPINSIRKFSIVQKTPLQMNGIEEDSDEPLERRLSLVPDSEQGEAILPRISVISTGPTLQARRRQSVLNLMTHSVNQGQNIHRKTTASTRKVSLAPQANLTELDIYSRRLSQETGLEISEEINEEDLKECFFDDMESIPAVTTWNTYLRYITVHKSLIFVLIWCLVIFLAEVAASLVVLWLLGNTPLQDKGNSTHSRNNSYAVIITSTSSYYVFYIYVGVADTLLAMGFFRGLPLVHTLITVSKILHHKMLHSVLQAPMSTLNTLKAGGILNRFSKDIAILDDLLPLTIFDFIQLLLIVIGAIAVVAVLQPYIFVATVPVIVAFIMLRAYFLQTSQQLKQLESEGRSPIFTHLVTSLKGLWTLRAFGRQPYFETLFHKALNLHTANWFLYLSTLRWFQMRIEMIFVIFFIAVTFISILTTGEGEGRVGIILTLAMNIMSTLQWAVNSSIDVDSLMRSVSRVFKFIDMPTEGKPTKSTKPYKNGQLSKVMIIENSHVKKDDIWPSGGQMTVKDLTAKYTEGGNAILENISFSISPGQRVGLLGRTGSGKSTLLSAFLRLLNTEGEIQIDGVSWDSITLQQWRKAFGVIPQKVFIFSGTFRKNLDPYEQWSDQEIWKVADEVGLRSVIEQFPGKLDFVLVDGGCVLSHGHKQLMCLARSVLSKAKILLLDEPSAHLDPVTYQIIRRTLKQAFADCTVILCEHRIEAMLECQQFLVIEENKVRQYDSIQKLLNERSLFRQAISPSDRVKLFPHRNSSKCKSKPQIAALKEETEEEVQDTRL

| SMILES | EC50 [nM] |
| --- | --- |
| COc1ccc(-c2ccnc3cc(C(=O)Nc4ccc(C(=O)N5CCOCC5)nc4)nn23)cc1OC [Compound 264, 7-(3,4-dimethoxyphenyl)-N-(6-(morpholine-4-carbonyl)pyridin-3-yl) pyrazolo[1,5-a]pyrimidine-2-carboxamide] | ≥ 2000 |
| COc1ccc(-c2ccnc3cc(C(=O)Nc4ccc(C(=O)N5CCN(C)CC5)nc4)nn23)cc1OC [Compound 265, 7-(3,4-dimethoxyphenyl)-N-(6-(4-methylpiperazine-1-carbonyl)pyridin-3-yl)pyrazolo[1,5-a] pyrimidine-2-carboxamide] | ≥ 2000 |
| COc1ccc(-c2ccnc3cc(C(=O)Nc4ccc(N5CCN(C(C)C)CC5)cc4)nn23)cc1OC [Compound 266, 7-(3,4-dimethoxyphenyl)-N-(4-(4-isopropylpiperazin-1-yl)phenyl)pyrazolo[1,5-a]pyrimidine-2-carboxamide] | < 200 |
| COc1ccc(-c2ccnc3cc(C(=O)Nc4ccc(N5CCCCC5)cc4)nn23)cc1OC [Compound 269, 7-(3,4-dimethoxyphenyl)-N-(4-(piperidin-1-yl)phenyl)pyrazolo [1,5-a]pyrimidine-2-carboxamide] | < 200 |
| CCN1CCN(c2ccc(NC(=O)c3cc4nccc(-c5ccc(OC)c(OC)c5)n4n3)cc2)CC1 [Compound 270, 7-(3,4-dimethoxyphenyl)-N-(4-(4-ethylpiperazin-1-yl)phenyl)pyrazolo[1,5-a]pyrimidine-2-carboxamide] | < 200 |
| COc1ccc(-c2ccnc3cc(C(=O)Nc4ccc(C(=O)OCCN5CCN(C(=O)OC(C)(C)C)CC5)cc4)nn23)cc1OC [Compound 275, tert-butyl 4-(2-((4-(7-(3,4-dimethoxyphenyl)pyrazolo [1,5-a]pyrimidine-2-carboxamido)benzoyl)oxy)ethyl)piperazine-1-carboxylate] | < 200 |
| COc1ccc(-c2ccnc3cc(C(=O)Nc4ccc(C(=O)O)c(F)c4)nn23)cc1OC [Compound 278, 4-(7-(3,4-dimethoxyphenyl)pyrazolo[1,5-a]pyrimidine-2-carboxamido)-2-fluorobenzoic acid] | ≥ 2000 |
| COc1ccc(-c2ccnc3cc(C(=O)Nc4ccc(C(=O)O)c(Cl)c4)nn23)cc1OC [Compound 279, 2-chloro-4-(7-(3,4-dimethoxyphenyl)pyrazolo [1,5-a]pyrimidine-2-carboxamido)benzoic acid] | ≥ 2000 |
| COc1ccc(-c2ccnc3cc(C(=O)Nc4ccc(N5CCNCC5)cn4)nn23)cc1OC [Compound 286, 7-(3,4-dimethoxyphenyl)-N-(5-(piperazin-1-yl)pyridin-2-yl)pyrazolo [1,5-a]pyrimidine-2-carboxamide] | < 200 |
| COc1ccc(-c2ccnc3cc(NC(=O)C45CCC(N6CCOCC6)(CC4)CC5)nn23)cc1OC [Compound 288, N-(7-(3,4-dimethoxyphenyl)pyrazolo[1,5-a]pyrimidin-2-yl)-4-morpholinobicyclo[2.2.2]octane-1-carboxamide] | ≥ 2000 |
| COc1ccc(-c2ccnc3cc(C(=O)Nc4cc(C(F)(F)F)cc(C(F)(F)F)c4)nn23)cc1OC [Compound 291, N-(3,5-bis(trifluoromethyl)phenyl)-7-(3,4-dimethoxyphenyl)pyrazolo [1,5-a]pyrimidine-2-carboxamide] | ≥ 2000 |
| COc1ccc(-c2ccnc3cc(C(=O)Nc4ccc(CO)cc4)nn23)cc1OC [Compound 292, 7-(3,4-dimethoxyphenyl)-N-(4-(hydroxymethyl)phenyl) pyrazolo[1,5-a]pyrimidine-2-carboxamide] | < 200 |
| COc1ccc(-c2ccnc3cc(C(=O)Nc4ccc(N5CCOCC5)cn4)nn23)cc1[N+](=O)[O-] [Compound 294, 7-(4-methoxy-3-nitrophenyl)-N-(5-morpholinopyridin-2-yl) pyrazolo[1,5-a] pyrimidine-2-carboxamide] | ≥ 2000 |
| COc1ccc(-c2ccnc3cc(C(=O)Nc4ccc(N5CCOCC5)cn4)nn23)c(F)c1 [Compound 297, 7-(2-fluoro-4-methoxyphenyl)-N-(5-morpholinopyridin-2-yl) pyrazolo[1,5-a]pyrimidine-2-carboxamide] | ≥ 2000 |
| O=C(Nc1ccc(N2CCOCC2)cn1)c1cc2nccc(-c3ccc(OC(F)(F)F)c(Cl)c3)n2n1 [Compound 299, 7-(3-chloro-4-(trifluoromethoxy)phenyl)-N-(5-morpholinopyridin-2-yl) pyrazolo[1,5-a]pyrimidine-2-carboxamide] | ≥ 2000 |
| COC(=O)c1ccc(NC(=O)c2cc3nccc(-c4ccccc4)n3n2)cc1 [Compound 305, methyl 4-(7-phenylpyrazolo[1,5-a]pyrimidine-2-carboxamido)benzoate] | ≥ 2000 |
| Cc1cccc(-c2ccnc3cc(C(=O)Nc4ccc(N5CCOCC5)cn4)nn23)c1 [Compound 306, N-(5-morpholinopyridin-2-yl)-7-(m-tolyl)pyrazolo[1,5-a] pyrimidine-2-carboxamide] | ≥ 2000 |
| COc1ccc(-c2ccnc3cc(C(=O)Nc4ccc5c(ccn5C)c4)nn23)cc1OC [Compound 309, 7-(3,4-dimethoxyphenyl)-N-(1-methyl-1H-indol-5-yl)pyrazolo [1,5-a]pyrimidine-2-carboxamide] | < 200 |
| COc1ccc(-c2ccnc3cc(C(=O)Nc4ccc5c(c4)OCO5)nn23)cc1OC [Compound 310, N-(benzo[d][1,3]dioxol-5-yl)-7-(3,4-dimethoxyphenyl)pyrazolo[1,5-a]pyrimidine-2-carboxamide] | < 200 |
| COc1ccc(-c2ccnc3cc(C(=O)Nc4ccc(N5CCOCC5)cc4F)nn23)cc1OC [Compound 311, 7-(3,4-dimethoxyphenyl)-N-(2-fluoro-4-morpholinophenyl) pyrazolo[1,5-a]pyrimidine-2-carboxamide] | < 200 |
| COc1ccc(-c2ccnc3cc(C(=O)Nc4ccc(N(C)C)cn4)nn23)cc1OC [Compound 312, 7-(3,4-dimethoxyphenyl)-N-(5-(dimethylamino)pyridin-2-yl)pyrazolo [1,5-a]pyrimidine-2-carboxamide] | < 200 |
| CCOc1ccc(NC(=O)c2cc3nccc(-c4ccc(OC)c(OC)c4)n3n2)nc1 [Compound 314, 7-(3,4-dimethoxyphenyl)-N-(5-ethoxypyridin-2-yl)pyrazolo[1,5-a] pyrimidine-2-carboxamide] | < 200 |

The remaining lines, values ahead:

| EC50 [nM] | SMILES |
| --- | --- |
| < 200 | COc1ccc(-c2ccnc3cc(C(=O)Nc4ccc(F)cc4)nn23)cc1OC [Compound 267, 7-(3,4-dimethoxyphenyl)-N-(4-fluorophenyl)pyrazolo[1,5-a]pyrimidine-2-carboxamide] |
| < 200 | COc1ccc(-c2ccnc3cc(C(=O)Nc4ccc(Br)cc4)nn23)cc1OC [Compound 268, N-(4-bromophenyl)-7-(3,4-dimethoxyphenyl)pyrazolo [1,5-a]pyrimidine-2-carboxamide] |
| 200 to 2000 | COc1ccc(-c2ccnc3cc(C(=O)Nc4ccc(OC(C)C)cc4)nn23)cc1OC [Compound 290, 7-(3,4-dimethoxyphenyl)-N-(4-isopropoxyphenyl)pyrazolo [1,5-a]pyrimidine-2-carboxamide] |
| ≥ 2000 | CCOc1ccc(NC(=O)c2cc3nccc(-c4ccc(F)c(F)c4)n3n2)cc1 [Compound 293] |
| ≥ 2000 | CCOc1ccc(NC(=O)c2cc3nccc(-c4ccc(OC)c([N+](=O)[O-])c4)n3n2)cc1 [Compound 295, N-(4-ethoxyphenyl)-7-(4-methoxy-3-nitrophenyl)pyrazolo [1,5-a]pyrimidine-2-carboxamide] |
| ≥ 2000 | CCOc1ccc(NC(=O)c2cc3nccc(-c4ccc(OC)cc4F)n3n2)cc1 [Compound 296, N-(4-ethoxyphenyl)-7-(2-fluoro-4-methoxyphenyl)pyrazolo [1,5-a]pyrimidine-2-carboxamide] |
| ≥ 2000 | CCOc1ccc(NC(=O)c2cc3nccc(-c4ccc(OC(F)(F)F)c(Cl)c4)n3n2)cc1 [Compound 298, 7-(3-chloro-4-(trifluoromethoxy)phenyl)-N-(4-ethoxyphenyl)pyrazolo [1,5-a]pyrimidine-2-carboxamide] |
| ≥ 2000 | CCOc1ccc(NC(=O)c2cc3nccc(-c4ccccc4)n3n2)cc1 [Compound 300, N-(4-ethoxyphenyl)-7-phenylpyrazolo[1,5-a]pyrimidine-2-carboxamide] |
| ≥ 2000 | CCOc1ccc(NC(=O)c2cc3nccc(-c4cccc(C)c4)n3n2)cc1 [Compound 301, N-(4-ethoxyphenyl)-7-(m-tolyl)pyrazolo[1,5-a] pyrimidine-2-carboxamide] |
| ≥ 2000 | CCOc1ccc(NC(=O)c2cc3nccc(-c4ccc(F)c(C)c4)n3n2)cc1 [Compound 302, N-(4-ethoxyphenyl)-7-(4-fluoro-3-methylphenyl)pyrazolo [1,5-a]pyrimidine-2-carboxamide] |
| ≥ 2000 | CCOc1ccc(NC(=O)c2cc3nccc(-c4cccs4)n3n2)cc1 [Compound 303, N-(4-ethoxyphenyl)-7-(thiophen-2-yl) pyrazolo[1,5-a]pyrimidine-2-carboxamide] |
| ≥ 2000 | CCOc1ccc(NC(=O)c2cc3nccc(-c4ccc(Cl)cc4F)n3n2)cc1 [Compound 304, 7-(4-chloro-2-fluorophenyl)-N-(4-ethoxyphenyl)pyrazolo [1,5-a]pyrimidine-2-carboxamide] |
| 200 to 2000 | CCOc1ccc(NC(=O)c2cc3nccc(-c4ccc(F)c(OC)c4)n3n2)cc1 [Compound 307, N-(4-ethoxyphenyl)-7-(4-fluoro-3-methoxyphenyl)pyrazolo [1,5-a]pyrimidine-2-carboxamide] |
| 200 to 2000 | CCOc1ccc(NC(=O)c2cc3nccc(-c4ccc(OC)c(F)c4)n3n2)cc1 [Compound 308, N-(4-ethoxyphenyl)-7-(3-fluoro-4-methoxyphenyl)pyrazolo [1,5-a]pyrimidine-2-carboxamide] |
| ≥ 2000 | CCOc1ccc(NC(=O)c2cc3nccc(-c4ccc5c(c4)CCO5)n3n2)cc1 [Compound 313, 7-(2,3-dihydrobenzofuran-5-yl)-N-(4-ethoxyphenyl)pyrazolo [1,5-a]pyrimidine-2-carboxamide] |
